Results from patent publication US8410289B2, “Spirocyclic 3'-alkoxytetramic acids and-tetronic acids” (Bayer Cropscience AG, priority 2004, dated 2013).

Columns and labels:
Summer wheat = assay: Herbicidal post-emergence action with/without safener (Example H, container trials with cereals, greenhouse or outdoors); assay type: in vivo
Experimental: (§1) Herbicidal Post-Emergence Action
(§2) Seeds of monocotyledonous and dicotyledonous weed and crop plants are placed into sandy loam in wood fibre pots or in plastic pots, covered with soil and cultivated in a greenhouse, during the vegetation period also outdoors outside of the greenhouse, under good growth conditions. 2-3 weeks after sowing, the test plants are treated at the one- to three-leaf stage. The test compounds, formulated as wettable powders (WP) or emulsifiable concentrates (EC) are, in various dosages with a water application rate of 300 l/ha (converted), with wetting agent (0.2 to 0.3%) added, sprayed onto the plants and the surface of the soil. 3-4 weeks after the treatment of the test plants, the effect of the preparations is rated visually in comparison to untreated controls (herbicidal effect in per cent (%): 100%=the plants have died, 0% effect=like control plants).
(§3) If it is additionally to be tested as to whether safeners can improve the crop plant compatibility of test substances in the case of crop plants, the following options are used for applying the safener: • seeds of the crop plants are, before sowing, dressed with the safener substance (the amount of safener stated in per cent, based on the weight of the seed) • before the application of the test substances, the crop plants are sprayed with the safener at a certain application rate per hectare (usually 1 day before the application of the test substances) • the safener is applied together with the test substance as a tank mix (the amount of safener is stated in g/ha or as a ratio, based on the herbicide).
(§4) By comparing the effect of the test substances on crop plants without or with safener treatment, it is possible to assess the effect of the safener substance.

barley = assay: as above; assay type: in vivo
Experimental: as §1, §2, §3, §4

maize = assay: Herbicidal post-emergence action with/without safener (Example H, container trials with maize in a greenhouse); assay type: in vivo; conditions: 12.5 g of a.i./ha, without safener
Experimental: as §1
as §2, with “plants). […]” for “plants).”

[1] = log P determination by HPLC on reverse-phase column (C 18), EEC-Directive 79/831 Annex V.A8; assay type: physicochemical; conditions: compounds of formula (I-2-a); generally isomer mixtures; those marked 1) were separated into cis and trans diastereomers
Experimental: • The log P values given in the tables and preparation examples above are determined in accordance with EEC-Directive 79/831 Annex V.A8 by HPLC (High Performance Liquid Chromatography) on a reverse-phase column (C 18). Temperature: 43° C.
The determination is carried out in the acidic range at pH 2.3 using the mobile phases 0.1% aqueous phosphoric acid and acetonitrile; linear gradient from 10% acetonitrile to 95% acetonitrile.
The LC-MS determination in the acidic range is carried out at pH 2.7 using the mobile phases 0.1% aqueous formic acid and acetonitrile (contains 0.1% formic acid); linear gradient from […] acetonitrile to 95% acetonitrile.
The LC-MS determination in the neutral range is carried out at pH 7.8 using the mobile phases 0.001 molar aqueous ammonium bicarbonate solution and acetonitrile; linear gradient from 10% acetonitrile to 95% acetonitrile.
The calibration is carried out using unbranched alkan-2-ones (with 3 to 16 carbon atoms) with known log P values (determination of the log P values by retention times using linear interpolation between two successive alkanones).

[2] = greenhouse, 25 g of a.i./ha, without safener
[3] = greenhouse, 50 g of a.i./ha, without safener
[4] = greenhouse, 3.125 g of a.i./ha, without safener
[5] = greenhouse, 6.25 g of a.i./ha, without safener
[6] = greenhouse, 100 g of a.i./ha, without safener
[7] = greenhouse, 12.5 g of a.i./ha, without safener
[8] = outdoors, 12.5 g of a.i./ha, without safener (trial with mefenpyr 1 day prior)
[9] = outdoors, 25 g of a.i./ha, without safener (tank mix trial)
[10] = outdoors, 25 g of a.i./ha, without safener (trial with mefenpyr 1 day prior)
[11] = outdoors, 50 g of a.i./ha, without safener (tank mix trial)
[12] = outdoors, 50 g of a.i./ha, without safener (trial with mefenpyr 1 day prior)
[13] = outdoors, 100 g of a.i./ha, without safener (tank mix trial), listed as Ex. I-1-a-43
[14] = outdoors, 100 g of a.i./ha, without safener (trial with mefenpyr 1 day prior)
[15] = tank mix post-emergence, 20 g of a.i./ha, without safener
[16] = tank mix post-emergence, 80 g of a.i./ha, without safener
[17] = outdoors, 100 g of a.i./ha, without safener (tank mix trial), listed as Ex. I-1-a-1

Compound: COC1CCCC2(C1)NC(=O)C(c1c(C)cc(C)cc1C)=C2O (mixture of isomers) [Example I-1-a-2]
- Summer wheat observed (%) (Summer wheat; container trial in a greenhouse, application rate 100 g of a.i./ha, without safener): 60%

Compound: CCCCOC1CCCC2(C1)NC(=O)C(c1c(Cl)cc(Br)cc1CC)=C2OC(=O)COC (single isomer, unassigned) [Ex. I-1-b-8]
- Summer barley observed (%) (barley; [2]): 30%
- Summer barley observed (%) (barley; [3]): 70%
- Summer wheat observed (%) (Summer wheat; [2]): 30%
- Summer wheat observed (%) (Summer wheat; [3]): 50%

Compound: CCCCOC1CCCC2(C1)NC(=O)C(c1c(Cl)cc(Br)cc1CC)=C2OC(=O)C(C)C (single isomer, unassigned) [Ex. I-1-b-9]
- Summer barley observed (%) (barley; [2]): 30%
- Summer barley observed (%) (barley; [3]): 90%
- Summer wheat observed (%) (Summer wheat; [2]): 20%
- Summer wheat observed (%) (Summer wheat; [3]): 90%

Compound: CCc1cc(C)cc(Br)c1C1=C(OC(=O)C(C)C)C2(CCCC(OC)C2)NC1=O (single isomer, unassigned) [Ex. I-1-b-11]
- Summer wheat observed (%) (Summer wheat; [2]): 10%
- Summer wheat observed (%) (Summer wheat; [3]): 70%

Compound: CCCCOC1CCCC2(C1)NC(=O)C(c1c(Br)cc(C)cc1CC)=C2OC(=O)COC (single isomer, unassigned) [Ex. I-1-b-14]
- Summer wheat observed (%) (Summer wheat; [4]): 20%
- Summer wheat observed (%) (Summer wheat; [5]): 30%

Compound: CCOC(=O)OC1=C(c2c(Br)cc(C)cc2CC)C(=O)NC12CCCC(OCC)C2 (single isomer, unassigned) [Ex. I-1-c-9]
- Summer wheat observed (%) (Summer wheat; [3]): 30%
- Summer wheat observed (%) (Summer wheat; [6]): 60%

Compound: CCOC(=O)OC1=C(c2c(Br)cc(C)cc2CC)C(=O)NC12CCCC(OC)C2 (single isomer, unassigned) [Ex. I-1-c-10]
- Summer wheat observed (%) (Summer wheat; [7]): 60%
- Cecilia Mais observed (%) (maize): 40%

Compound: CCCOC1CCCC2(C1)NC(=O)C(c1c(Br)cc(C)cc1CC)=C2O (single isomer, unassigned) [Example I-1-a-12]
- Summer barley observed (%) (barley; [4]): 30%
- Summer barley observed (%) (barley; [5]): 97%
- Summer barley observed (%) (barley; [7]): 99%
- Summer wheat observed (%) (Summer wheat; [5]): 10%
- Summer wheat observed (%) (Summer wheat; [7]): 97%

Compound: CCc1cc(C)cc(Br)c1C1=C(O)C2(CCCC(OC)C2)NC1=O (single isomer, unassigned) [Example I-1-a-14]
- Summer barley observed (%) (barley; [7]): 30%
- Summer barley observed (%) (barley; [2]): 93%
- Summer wheat observed (%) (Summer wheat; [7]): 30%
- Summer wheat observed (%) (Summer wheat; [2]): 93%

Compound: CCCCOC1CCCC2(C1)NC(=O)C(c1c(Br)cc(C)cc1CC)=C2O (single isomer, unassigned) [Example I-1-a-17]
- Summer wheat observed (%) (Summer wheat; [5]): 10%
- Summer wheat observed (%) (Summer wheat; [7]): 60%
- Summer wheat observed (%) (Summer wheat; [2]): 70%

Compound: CCOC1CCCC2(C1)NC(=O)C(c1c(Br)cc(C)cc1CC)=C2O (single isomer, unassigned) [Example I-1-a-18]
- Summer barley observed (%) (barley; [5]): 50%
- Summer barley observed (%) (barley; [7]): 93%
- Summer wheat observed (%) (Summer wheat; [4]): 30%
- Summer wheat observed (%) (Summer wheat; [5]): 40%
- Summer wheat observed (%) (Summer wheat; [7]): 95%

Compound: CCCOC1CCCC2(C1)NC(=O)C(c1c(C)cc(C)cc1C)=C2O (single isomer, unassigned) [Example I-1-a-19]
- Summer barley observed (%) (barley; [3]): 25%
- Summer barley observed (%) (barley; [6]): 30%

Compound: CCCCOC1CCCC2(C1)NC(=O)C(c1c(C)cc(C)cc1C)=C2O (single isomer, unassigned) [Example I-1-a-43]
- Summer barley observed (%) (barley; [8]): 10%
- Summer barley observed (%) (barley; [9]): 40%
- Summer barley observed (%) (barley; [10]): 70%
- Summer barley observed (%) (barley; [11]): 50%
- Summer barley observed (%) (barley; [12]): 20%
- Summer barley observed (%) (barley; [13]): 60%
- Summer barley observed (%) (barley; [14]): 30%
- Summer barley (Scarlett) observed (%) (barley; [15]): 30%
- Winter barley observed (%) (barley; [15]): 20%
- Summer barley (Baronesse) observed (%) (barley; [16]): 30%
- Winter barley observed (%) (barley; [16]): 30%
- Summer wheat observed (%) (Summer wheat; [8]): 30%
- Summer wheat observed (%) (Summer wheat; [9]): 40%
- Summer wheat observed (%) (Summer wheat; [10]): 60%
- Summer wheat observed (%) (Summer wheat; [11]): 50%
- Summer wheat observed (%) (Summer wheat; [12]): 15%
- Summer wheat observed (%) (Summer wheat; [13]): 60%
- Summer wheat observed (%) (Summer wheat; [14]): 30%

Compound: CCCCOC1CCCC2(C1)NC(=O)C(c1c(C)cc(C)cc1C)=C2O (stereo not shown) [Example I-1-a-1]
- Summer barley observed (%) (barley; [17]): 70%
- Summer wheat observed (%) (Summer wheat; [17]): 35%

Compound: CCCCOC1CCCC2(C1)OC(=O)C(c1ccc(C)cc1Cl)=C2O (stereo not shown) [I-2-a-56]
- logP [1]: 3.32

Compound: CCCCOC1CCCC2(C1)OC(=O)C(c1ccccc1C)=C2O (stereo not shown) [I-2-a-57]
- logP [1]: 3.03

Compound: CCCCOC1CCCC2(C1)OC(=O)C(c1ccc(C)cc1C)=C2O (stereo not shown) [I-2-a-58]
- logP [1]: 3.32

Compound: CCCCOC1CCCC2(C1)OC(=O)C(c1cc(C)c(C)cc1Br)=C2O (stereo not shown) [I-2-a-59]
- logP [1]: 3.57

Compound: CCCCOC1CCCC2(C1)OC(=O)C(c1c(C)cc(C)cc1Cl)=C2O (stereo not shown) [I-2-a-60]
- logP [1]: 3.49

Compound: CCCCOC1CCCC2(C1)OC(=O)C(c1c(C)cc(C)c(C)c1C)=C2O (stereo not shown) [I-2-a-61]
- logP [1]: 3.76

Compound: CCCCOC1CCCC2(C1)OC(=O)C(c1cc(C)ccc1C)=C2O (stereo not shown) [I-2-a-62]
- logP [1]: 3.36

Compound: CCCCOC1CCCC2(C1)OC(=O)C(c1c(C)cc(Br)cc1CC)=C2O (stereo not shown) [I-2-a-63]
- logP [1]: 3.99
